From the NIST ThermoML archive (doi:10.1016/j.jct.2015.11.027)

Conditions: Liquid, Vibrating wire viscometry

Cc1ccc(C)cc1 [1,4-dimethylbenzene]
Conditions	viscosity [mPa·s]
293.03 K, 15000 kPa	0.7277
293.03 K, 20000 kPa	0.7569
293.03 K, 25000 kPa	0.7883
293.03 K, 30000 kPa	0.8186
293.04 K, 100 kPa	0.6444
293.04 K, 1000 kPa	0.6494
293.04 K, 5000 kPa	0.672
293.04 K, 10000 kPa	0.6997
302.86 K, 100 kPa	0.5762
302.86 K, 1000 kPa	0.5804
302.87 K, 5000 kPa	0.5995
302.87 K, 10000 kPa	0.6244
302.88 K, 15000 kPa	0.6499
302.88 K, 20000 kPa	0.6747
302.88 K, 25000 kPa	0.7023
302.89 K, 30000 kPa	0.7274
312.76 K, 100 kPa	0.515
312.76 K, 1000 kPa	0.5186
312.76 K, 15000 kPa	0.5806
312.76 K, 20000 kPa	0.6027
312.76 K, 25000 kPa	0.6263
312.76 K, 30000 kPa	0.6494
312.77 K, 5000 kPa	0.5356
312.77 K, 10000 kPa	0.5575
322.62 K, 100 kPa	0.4653
322.63 K, 1000 kPa	0.4689
322.64 K, 5000 kPa	0.4833
322.64 K, 10000 kPa	0.5038
322.64 K, 15000 kPa	0.524
322.64 K, 20000 kPa	0.5442
322.64 K, 25000 kPa	0.5653
322.65 K, 30000 kPa	0.5861
332.57 K, 30000 kPa	0.5304
332.58 K, 100 kPa	0.4206
332.58 K, 1000 kPa	0.4237
332.58 K, 5000 kPa	0.4383
332.58 K, 10000 kPa	0.4564
332.58 K, 15000 kPa	0.4745
332.58 K, 20000 kPa	0.493
332.58 K, 25000 kPa	0.5109
342.27 K, 100 kPa	0.3815
342.27 K, 1000 kPa	0.3842
342.28 K, 5000 kPa	0.3977
342.28 K, 10000 kPa	0.4144
342.28 K, 20000 kPa	0.4482
342.29 K, 15000 kPa	0.4314
342.29 K, 25000 kPa	0.4649
342.29 K, 30000 kPa	0.4833
352.2 K, 5000 kPa	0.3634
352.2 K, 10000 kPa	0.3791
352.2 K, 15000 kPa	0.3945
352.2 K, 20000 kPa	0.4111
352.2 K, 25000 kPa	0.4263
352.2 K, 30000 kPa	0.4423
352.21 K, 100 kPa	0.3483
352.21 K, 1000 kPa	0.3507
362.73 K, 100 kPa	0.3194
362.74 K, 1000 kPa	0.3217
362.75 K, 5000 kPa	0.3331
362.76 K, 10000 kPa	0.3467
362.76 K, 15000 kPa	0.3616
362.77 K, 20000 kPa	0.3756
362.81 K, 25000 kPa	0.3915
362.82 K, 30000 kPa	0.405
372.69 K, 20000 kPa	0.348
372.69 K, 25000 kPa	0.3614
372.69 K, 30000 kPa	0.3752
372.7 K, 10000 kPa	0.3203
372.7 K, 15000 kPa	0.3341
372.71 K, 100 kPa	0.2936
372.71 K, 1000 kPa	0.296
372.71 K, 5000 kPa	0.3061

Cc1ccccc1C [1,2-dimethylbenzene]
Conditions	viscosity [mPa·s]
273.48 K, 100 kPa	1.102
273.48 K, 1000 kPa	1.113
273.48 K, 5000 kPa	1.154
273.48 K, 10000 kPa	1.209
273.48 K, 15000 kPa	1.264
273.48 K, 20000 kPa	1.319
273.48 K, 25000 kPa	1.378
273.48 K, 30000 kPa	1.436
283.21 K, 10000 kPa	1.031
283.21 K, 15000 kPa	1.075
283.21 K, 20000 kPa	1.121
283.21 K, 25000 kPa	1.169
283.21 K, 30000 kPa	1.216
283.22 K, 100 kPa	0.9464
283.22 K, 1000 kPa	0.9529
283.22 K, 5000 kPa	0.9859
293.04 K, 100 kPa	0.8196
293.04 K, 1000 kPa	0.8252
293.04 K, 5000 kPa	0.8535
293.04 K, 10000 kPa	0.8901
293.05 K, 15000 kPa	0.9269
293.05 K, 20000 kPa	0.9685
293.05 K, 25000 kPa	1.006
293.06 K, 30000 kPa	1.048
302.87 K, 100 kPa	0.7178
302.87 K, 1000 kPa	0.7228
302.87 K, 20000 kPa	0.8457
302.87 K, 25000 kPa	0.879
302.87 K, 30000 kPa	0.9126
302.88 K, 5000 kPa	0.7489
302.88 K, 10000 kPa	0.7794
302.88 K, 15000 kPa	0.8128
312.66 K, 100 kPa	0.6371
312.66 K, 10000 kPa	0.6901
312.66 K, 20000 kPa	0.7486
312.66 K, 25000 kPa	0.7781
312.66 K, 30000 kPa	0.8077
312.67 K, 1000 kPa	0.6414
312.67 K, 5000 kPa	0.6635
312.67 K, 15000 kPa	0.7185
321.85 K, 100 kPa	0.5744
321.85 K, 1000 kPa	0.5794
321.85 K, 10000 kPa	0.6241
321.85 K, 15000 kPa	0.6489
321.85 K, 30000 kPa	0.7248
321.86 K, 5000 kPa	0.5991
321.86 K, 20000 kPa	0.6748
321.86 K, 25000 kPa	0.6987
332.47 K, 100 kPa	0.515
332.47 K, 1000 kPa	0.5176
332.48 K, 5000 kPa	0.5347
332.48 K, 10000 kPa	0.5575
332.48 K, 15000 kPa	0.5798
332.48 K, 20000 kPa	0.6029
332.48 K, 25000 kPa	0.6273
332.48 K, 30000 kPa	0.6504
343.06 K, 100 kPa	0.4586
343.07 K, 1000 kPa	0.4624
343.07 K, 5000 kPa	0.4782
343.07 K, 10000 kPa	0.499
343.08 K, 15000 kPa	0.5195
343.08 K, 25000 kPa	0.5603
343.08 K, 30000 kPa	0.5817
343.09 K, 20000 kPa	0.5401
353.01 K, 30000 kPa	0.5312
353.02 K, 10000 kPa	0.4549
353.02 K, 15000 kPa	0.4725
353.02 K, 20000 kPa	0.4922
353.02 K, 25000 kPa	0.5113
353.03 K, 5000 kPa	0.4342
353.04 K, 100 kPa	0.4177
353.04 K, 1000 kPa	0.4196
362.85 K, 100 kPa	0.3838
362.85 K, 1000 kPa	0.3862
362.85 K, 5000 kPa	0.4001
362.85 K, 10000 kPa	0.4169
362.86 K, 15000 kPa	0.434
362.86 K, 20000 kPa	0.4506
362.87 K, 25000 kPa	0.469
362.87 K, 30000 kPa	0.4842
372.83 K, 100 kPa	0.3528
372.84 K, 1000 kPa	0.3556
372.84 K, 5000 kPa	0.3683
372.85 K, 10000 kPa	0.3831
372.85 K, 25000 kPa	0.4324
372.86 K, 15000 kPa	0.4015
372.86 K, 20000 kPa	0.4156
372.86 K, 30000 kPa	0.4477
